# Data reported in patent US6642392B1 (priority 1997, dated 2003).
# Like-named read-outs stand apart in the source and are kept apart here.
# Legend:
# Type in all cases: in vivo
# Phytophthora infestans = details: for Test D disease control rating (100 = 100% disease control, 0 = no disease control): tomato seedlings sprayed to run-off, inoculated the following day, rating relative to controls, unmarked compounds (standard test rate); for Test D disease control rating: tomato late blight
# Puccinia recondita = assay: Test B: wheat leaf rust, preventive spray on wheat seedlings; details: for Test B disease control rating (100 = 100% disease control, 0 = no disease control): wheat seedlings sprayed to run-off, inoculated the following day, rating relative to controls, unmarked compounds (standard test rate); for Test B disease control rating: wheat leaf rust
# In short: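 Preventive test: P. recondita spores were applied one day after a run-off spray of compound suspension on wheat seedlings. Plants had 24 h at 20 °C in saturated air plus 6 days in a 20 °C growth chamber. Scoring is % disease control (100 = full) relative to controls.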
# Pyricularia oryzae = details: for Test C disease control rating (100 = 100% disease control, 0 = no disease control): rice seedlings sprayed to run-off, inoculated the following day, rating relative to controls, unmarked compounds (standard test rate); for Test C disease control rating: rice blast
# [1] = test system: Eiysiphe graminis f. sp. tritici; assay: Test A: wheat powdery mildew, preventive spray on wheat seedlings; details: for Test A disease control rating (100 = 100% disease control, 0 = no disease control): wheat seedlings sprayed to run-off, inoculated the following day, rating relative to controls, unmarked compounds (standard test rate); for Test A disease control rating: wheat powdery mildew
# In short: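 Preventive test: seedlings inoculated with powdery mildew spores one day after run-off spraying of a suspension. Ratings after 7 days in a 20° C growth chamber express percent disease control versus controls.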
# Botrytis cinerea = assay: Test E: gray mold, preventive spray on cucumber seedlings; details: for Test E disease control rating (100 = 100% disease control, 0 = no disease control): cucumber seedlings sprayed to run-off, inoculated the following day, rating relative to controls, unmarked compounds (standard test rate); for Test E disease control rating: gray mold on cucumber
# In short: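 Preventive spray on cucumber seedlings used a suspension (3% acetone, 250 ppm Trem 014), applied to run-off one day before inoculation with Botrytis cinerea spores. Plants were held 48 h at 20° C in saturated air, then 5 days at 20° C. Percent disease control was scored relative to untreated plants.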
# [2] = 100 = 100% disease control, 0 = no control, unmarked entries (standard test concentration)
# [3] = 100 = 100% disease control, 0 = no control relative to controls, unmarked entries (standard test concentration)
SMILES,Test D disease control rating (Phytophthora infestans; [2]),Test B disease control rating (Puccinia recondita; [2]),Test C disease control rating (Pyricularia oryzae; [2]),"Test A disease control rating [1, 3]",Test E disease control rating (Botrytis cinerea; [2]),further results
CC(NC(=O)C(C#N)C(C)(C)C)C(Oc1ccccc1C#N)c1ccccc1 (mixture of isomers) [compound 291],–,–,–,–,–,"Test D disease control rating (100 = 100% disease control, 0 = no disease control) (Phytophthora infestans): 0%; Test B disease control rating (100 = 100% disease control, 0 = no disease control) (Puccinia recondita): 0%; Test C disease control rating (100 = 100% disease control, 0 = no disease control) (Pyricularia oryzae): 90%; Test A disease control rating (100 = 100% disease control, 0 = no disease control) [1]: 0%; Test E disease control rating (100 = 100% disease control, 0 = no disease control) (Botrytis cinerea): 0%"
CCC1(C(=O)NC(C)COc2ccccc2Cl)C(C)C1(Cl)Cl (mixture of isomers) [81b],–,–,–,–,–,Test D disease control rating (Phytophthora infestans; tested at 40 ppm): 0%; Test B disease control rating (Puccinia recondita; tested at 40 ppm): 0%; Test C disease control rating (Pyricularia oryzae; tested at 40 ppm): 74%; Test A disease control rating ([1]; tested at 40 ppm): 85%; Test E disease control rating (Botrytis cinerea; tested at 40 ppm): 0%
"C[C@H](COc1c(Cl)ccc(Cl)c1Cl)NC(=O)C(C#N)C(C)(C)C (single isomer, unassigned) [171b]",0%,0%,53%,91%,58%,–
"C[C@H](COc1cc(F)cc(F)c1)NC(=O)C(C#N)C(C)(C)C (single isomer, unassigned) [184a]",0%,0%,74%,62%,6%,–
CC(COc1ccccc1C#N)NC(=O)C(C#N)C(C)C(C)(C)C (mixture of isomers) [compound 60],–,–,–,–,–,Test D disease control rating (Phytophthora infestans; tested at 40 ppm): 0%; Test B disease control rating (Puccinia recondita; tested at 40 ppm): 0%; Test C disease control rating (Pyricularia oryzae; tested at 40 ppm): 0%; Test A disease control rating ([1]; tested at 40 ppm): 91%; Test E disease control rating (Botrytis cinerea; tested at 40 ppm): 0%
CCC1(C(=O)NCCCn2cccc2C#N)C(C)C1(Cl)Cl (centres unmarked) [compound 149],0%,27%,53%,30%,0%,–
CC(C)(C)C(C#N)C(=O)NC/C=C/c1ccccc1 (racemic) [compound 167],23%,0%,74%,0%,0%,–
CCC1(C(=O)NC(C)COc2cccc(Cl)c2)C(C)C1(Cl)Cl (mixture of isomers) [82b],15%,0%,97%,31%,0%,–
CCCc1cccc(C#N)c1OCC(C)NC(=O)C1(CC)C(C)C1(Cl)Cl (mixture of isomers) [compound 255],–,–,–,–,–,"Test D disease control rating (100 = 100% disease control, 0 = no disease control) (Phytophthora infestans): 0%; Test B disease control rating (100 = 100% disease control, 0 = no disease control) (Puccinia recondita): 0%; Test C disease control rating (100 = 100% disease control, 0 = no disease control) (Pyricularia oryzae): 74%; Test A disease control rating (100 = 100% disease control, 0 = no disease control) [1]: 28%; Test E disease control rating (100 = 100% disease control, 0 = no disease control) (Botrytis cinerea): 0%"
CC(COc1c(Cl)cccc1C#N)NC(=O)C(C#N)C(C)(C)C (mixture of isomers) [compound 210],0%,0%,91%,0%,0%,–
CCC1(C(=O)NC(C)COc2cc(F)ccc2Br)C(C)C1(Cl)Cl (centres unmarked) [compound 125],–,–,–,–,–,Test D disease control rating (Phytophthora infestans; tested at 40 ppm): 0%; Test B disease control rating (Puccinia recondita; tested at 40 ppm): 0%; Test C disease control rating (Pyricularia oryzae; tested at 40 ppm): 99%; Test A disease control rating ([1]; tested at 40 ppm): 90%; Test E disease control rating (Botrytis cinerea; tested at 40 ppm): 0%
CCC1(C(=O)NC(C)COc2cc(F)ccc2C#N)C(C)C1(Cl)Cl (centres unmarked) [compound 245],–,–,–,–,–,"Test D disease control rating (100 = 100% disease control, 0 = no disease control) (Phytophthora infestans): 0%; Test B disease control rating (100 = 100% disease control, 0 = no disease control) (Puccinia recondita): 0%; Test C disease control rating (100 = 100% disease control, 0 = no disease control) (Pyricularia oryzae): 100%; Test A disease control rating (100 = 100% disease control, 0 = no disease control) [1]: 72%; Test E disease control rating (100 = 100% disease control, 0 = no disease control) (Botrytis cinerea): 0%"
CC(COc1cccc(Cl)c1)NC(=O)C(C#N)C(C)(C)C (mixture of isomers) [6b],4%,68%,53%,38%,0%,–
CC(COc1ccccc1F)NC(=O)C1(C)CC1(Cl)Cl (mixture of isomers) [compound 315],–,–,–,–,–,"Test D disease control rating (100 = 100% disease control, 0 = no disease control) (Phytophthora infestans): 16%; Test B disease control rating (100 = 100% disease control, 0 = no disease control) (Puccinia recondita): 99%; Test C disease control rating (100 = 100% disease control, 0 = no disease control) (Pyricularia oryzae): 51%; Test A disease control rating (100 = 100% disease control, 0 = no disease control) [1]: 60%; Test E disease control rating (100 = 100% disease control, 0 = no disease control) (Botrytis cinerea): 0%"
"C=CC(C)(C)C(C#N)C(=O)N[C@H](C)COc1cc(F)ccc1Cl (single isomer, unassigned) [192b]",0%,0%,100%,0%,0%,–
CCC1(C(=O)NCC=Cc2ccc(F)cc2F)C(C)C1(Cl)Cl (centres unmarked) [compound 162],95%,0%,74%,0%,82%,–
"C[C@H](COc1cccc(C(F)(F)F)c1)NC(=O)C(C#N)C(C)(C)C (single isomer, unassigned) [18a]",0%,0%,91%,0%,0%,–
CC(COc1cc(I)ccc1C#N)NC(=O)C(C#N)C(C)(C)C (mixture of isomers) [compound 46],66%,0%,53%,0%,0%,–
"Cc1ccc(OC[C@@H](C)NC(=O)C(C#N)C(C)(C)C)c(Cl)c1 (single isomer, unassigned) [14b]",23%,0%,86%,61%,0%,–
